# Source: patent publication US6521405B1, “Cell-free replication system and uses thereof” (Cancer Research Campaign Technology Limited, priority 1997, dated 2003)
# System: G1 NIH 3T3 nuclei
# Assay: Cell-free DNA replication assay: G1 nuclei in HeLa S phase cytosol, biotin-dUTP incorporation, percentage of nuclei replicating (staining yellow)
# Assay type: biochemical, mouse
# Conditions: about 50% yellow staining nuclei without inhibitor
# Description: Nuclear templates were prepared by Dounce homogenisation as described previously, but from NIH 3T3 cells. G0, quiescent, cells were prepared by allowing NIH 3T3 cells to proliferate until they reached confluence and arrested their proliferation. They were released from quiescence by trypsinization and replating at ¼ the cell density. Cells were harvested as described previously (Krude et al., 1997) at measured times after release from quiescence. The 3T3 cells treated this way pass through G1 and begin to enter S phase synchronously about 21 hrs later. Nuclei and cytosolic extract were produced by hypotonically swelling the cells, scrape harvesting and Dounce-homogenizing. […]
# In vitro replication assays were performed in 50 μl reactions in 1.5 ml polypropylene tubes (Sarstedt or Eppendorf). […] Biotin-dUTP incorporation was detected by staining with fluorescein-streptavidin, whilst total DNA was visualized by propidium iodide. […] The percentage of nuclei replicating were calculated from many prints of confocal images. […]
# The competence of G1 NIH 3T3 nuclei to replicate was determined by repeating the collection of G1 nuclei at different times following release from G0 arrest and incubating the nuclei with S phase cytosol in accordance with the procedures of Example 1. […]
smiles,measurement,setting,value
CC[C@H](CO)Nc1nc(NCc2ccccc2)c2ncn(C(C)C)c2n1 [roscovitin],decrease of yellow staining nuclei,1 μM,~5 fold
same,decrease of yellow staining nuclei,1 mM,~5 fold
